Data published in PubChem BioAssay (NCI).
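Assay format: 96-well plates, 48-hour exposure. TGI is the concentration that stops growth completely.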

Experiments:
Experiment in all cases: inhibition of tumour cell growth, NCI panel, 48 h
UACC-257 melanoma = system: UACC-257 melanoma
SNB-19 CNS = system: SNB-19 CNS
UO-31 renal = system: UO-31 renal
SK-OV-3 ovarian = system: SK-OV-3 ovarian
ACHN renal = system: ACHN renal
TK-10 renal = system: TK-10 renal
MDA-MB-231 breast = system: MDA-MB-231 breast
EKVX NSCLC = system: EKVX NSCLC
M14 melanoma = system: M14 melanoma
HOP-62 NSCLC = system: HOP-62 NSCLC
SN12C renal = system: SN12C renal
KM12 colon = system: KM12 colon
K-562 leukemia = system: K-562 leukemia
NCI/ADR-RES ovarian = system: NCI/ADR-RES ovarian
PC-3 prostate = system: PC-3 prostate
SK-MEL-28 melanoma = system: SK-MEL-28 melanoma
A549 NSCLC = system: A549 NSCLC
LOX IMVI melanoma = system: LOX IMVI melanoma
IGROV1 ovarian = system: IGROV1 ovarian
MCF7 breast = system: MCF7 breast
CAKI-1 renal = system: CAKI-1 renal
OVCAR-3 ovarian = system: OVCAR-3 ovarian
OVCAR-4 ovarian = system: OVCAR-4 ovarian
SK-MEL-2 melanoma = system: SK-MEL-2 melanoma
CCRF-CEM leukemia = system: CCRF-CEM leukemia
OVCAR-8 ovarian = system: OVCAR-8 ovarian
SF-539 CNS = system: SF-539 CNS
SNB-75 CNS = system: SNB-75 CNS
HT29 colon = system: HT29 colon
RPMI-8226 leukemia = system: RPMI-8226 leukemia
HOP-92 NSCLC = system: HOP-92 NSCLC
SF-295 CNS = system: SF-295 CNS
HCT-116 colon = system: HCT-116 colon
MOLT-4 leukemia = system: MOLT-4 leukemia
SF-268 CNS = system: SF-268 CNS
SR leukemia = system: SR leukemia
UACC-62 melanoma = system: UACC-62 melanoma
RXF 393 renal = system: RXF 393 renal
DU-145 prostate = system: DU-145 prostate
NCI-H460 lung = system: NCI-H460 lung
NCI-H522 lung = system: NCI-H522 lung
HS 578T breast = system: HS 578T breast
MDA-MB-435 = system: MDA-MB-435
OVCAR-5 ovarian = system: OVCAR-5 ovarian
A498 renal = system: A498 renal
T-47D breast = system: T-47D breast
786-0 renal = system: 786-0 renal
BT-549 breast = system: BT-549 breast
COLO 205 colon = system: COLO 205 colon
U251 CNS = system: U251 CNS
HL-60(TB) leukemia = system: HL-60(TB) leukemia
MALME-3M melanoma = system: MALME-3M melanoma
NCI-H23 lung = system: NCI-H23 lung
HCT-15 colon = system: HCT-15 colon
HCC-2998 colon = system: HCC-2998 colon
SK-MEL-5 melanoma = system: SK-MEL-5 melanoma
NCI-H226 lung = system: NCI-H226 lung
SW-620 colon = system: SW-620 colon

For `O=C1c2ccccc2C(=O)c2c1nc1ccccc1c2-c1cncc(-c2c3c(nc4ccccc24)C(=O)c2ccccc2C3=O)c1`, the TGI (UACC-257 melanoma) was 22.4 µM, the TGI (SNB-19 CNS) was > 82.7 µM and the TGI (UO-31 renal) was 31.8 µM. For the same compound, the TGI (SK-OV-3 ovarian) was > 100 µM, the TGI (ACHN renal) was > 55.7 µM and the TGI (TK-10 renal) was > 100 µM. The TGI (MDA-MB-231 breast) was 98.2 µM, the TGI (EKVX NSCLC) was > 100 µM and the TGI (M14 melanoma) was 32.4 µM. For the same compound, the TGI (HOP-62 NSCLC) was > 100 µM, the TGI (SN12C renal) was 27.9 µM and the TGI (KM12 colon) was > 61.6 µM. For the same compound, the TGI (K-562 leukemia) was > 100 µM, the TGI (NCI/ADR-RES ovarian) was 51 µM and the TGI (PC-3 prostate) was > 100 µM. It also gave a TGI (SK-MEL-28 melanoma) of 28.7 µM, a TGI (A549 NSCLC) of 22.3 µM and a TGI (LOX IMVI melanoma) of 13.8 µM. The TGI (IGROV1 ovarian) was 19.7 µM, the TGI (MCF7 breast) was 32.8 µM and the TGI (CAKI-1 renal) was 71.1 µM. For the same compound, the TGI (OVCAR-3 ovarian) was > 75.6 µM, the TGI (OVCAR-4 ovarian) was > 100 µM and the TGI (SK-MEL-2 melanoma) was 44.6 µM. The TGI (CCRF-CEM leukemia) was 43.9 µM, the TGI (OVCAR-8 ovarian) was 27.1 µM and the TGI (SF-539 CNS) was 60.5 µM. The TGI (SNB-75 CNS) was 21.1 µM, the TGI (HT29 colon) was 27.8 µM and the TGI (RPMI-8226 leukemia) was 3.51 µM. For the same compound, the TGI (HOP-92 NSCLC) was > 43.7 µM, the TGI (SF-295 CNS) was 22.8 µM and the TGI (HCT-116 colon) was 24.7 µM. The TGI (MOLT-4 leukemia) was 12.2 µM, the TGI (SF-268 CNS) was > 62.8 µM and the TGI (SR leukemia) was 7.9 µM. The TGI (UACC-62 melanoma) was 19.9 µM, the TGI (RXF 393 renal) was > 100 µM and the TGI (DU-145 prostate) was 16.1 µM. For the same compound, the TGI (NCI-H460 lung) was 10 µM, the TGI (NCI-H522 lung) was 19.6 µM and the TGI (HS 578T breast) was 14.7 µM. The TGI (MDA-MB-435) was 3.96 µM, the TGI (OVCAR-5 ovarian) was > 100 µM and the TGI (A498 renal) was 26.7 µM. It also gave a TGI (T-47D breast) of 57.6 µM, a TGI (786-0 renal) of 67.4 µM and a TGI (BT-549 breast) of 40 µM. For the same compound, the TGI (COLO 205 colon) was 19.8 µM, the TGI (U251 CNS) was > 45.8 µM and the TGI (HL-60(TB) leukemia) was 18.3 µM. For the same compound, the TGI (MALME-3M melanoma) was 24.1 µM, the TGI (NCI-H23 lung) was 2.62 µM and the TGI (HCT-15 colon) was 9.34 µM. It also gave a TGI (HCC-2998 colon) of 49.7 µM, a TGI (SK-MEL-5 melanoma) of 4.22 µM and a TGI (NCI-H226 lung) of 43.6 µM. It also gave a TGI (SW-620 colon) of 37.8 µM.
